Test results as given in patent publication US8110585B2, “Bicyclic compound and pharmaceutical use thereof” (Takeda Pharmaceutical Company Limited, priority 2007, dated 2012).

Experiments:
[1] = target: T1, human melatonin 1 receptors (human MT1 receptors) (Homo sapiens, UniProt P48039); test: Melatonin receptor binding inhibitory test, 2-[125I] Iodomelatonin, MT1; details: membrane fraction of CHO-hMelR7 cells, 25° C. for 2.5 hr, read-out: binding inhibitory activity as IC50 value for MT1
T1 construct: expressed in transfected cells; membrane fraction
Procedure: (§1) Melatonin Receptor Binding Inhibitory Test
(1) Preparation of CHO-hMelR7 Cells expressing Human Melatonin 1 Receptors
A cDNA fragment (SEQ ID NO: 1) encoding full-length of human melatonin 1 receptors (human MT1 receptors) was incorporated into expression vector pAKKO-111H (former name pAKKO1.11H; Biochim Biophys Acta. Vol. 1219(2), pp. 251-259, 1994) to give plasmid pAKKO-hMelR7 for animal cell expression. CHO/dhfr-cells (ATCC, #CRL-9096) were plated at a concentration of 0.3×10^6 cells/dish in a 6 cm culture dish (Becton Dickinson), and cultured under the conditions of 37° C., 5% CO2 for 48 hr. The cells were transfected with pAKKO-hMelR7 plasmid DNA (5 μg) using Cellphect Transfection Kit (Amersham, #27-9268-01). The transfected cells were cultured in Dulbecco's modified Eagle medium (DMEM) (Sigma, #D6046) containing 10% dialyzed FBS (Biowest, #S180D), 1× Non-Essential Amino Acid (Invitrogen, #11140-050) and 50 μg/mL Gentamycin (Invitrogen, #15750-060), and the cell line that stably expressed the plasmid gene was selected. By a receptor binding assay using 2-[^125I] Iodomelatonin, CHO-hMelR7 cell line showing specific binding of 2-[^125I] Iodomelatonin was selected from the obtained clones.
(§2) (3) Preparation of Cellular Membrane Fraction of CHO Cell (CHO-hMelR7 and CHO-hMT2) Stably Expressing Human MT1 and MT2 Receptors
(§3) CHO-hMelR7 and CHO-hMT2 cells were plated using Cellfactory (Nunc, #170009) under the conditions of 1×10^8 cells/2000 mL/flask. The cells were grown to confluent, and recovered by the following method. As the medium for CHO-hMelR7 and CHO-hMT2, MEM a containing 10% FBS and penicillin/streptomycin was used. […]
(§4) The medium was discarded, cells were washed twice with 200 mL of EDTA/PBS(−), 200 mL of EDTA/PBS(−) was further added, and the cells were stood still at room temperature for 20 min until they were released. The cells were recovered in four 50 mL tubes (Becton Dickinson, #352070), and centrifuged at 1,500 rpm for 10 min at 4° C. using a low speed cooling centrifuge (Hitachi, CF7D2). The supernatant was discarded, the pellets in the four tubes were suspended in 10 mL of PBS(−), and combined in one tube (Becton Dickinson, #352070). The mixture was further centrifuged at 1,500 rpm for 10 min at 4° C., and the obtained pellets were suspended in 20 mL of ice-cooled homogenizing buffer [10 mM NaHCO3, 5 mM EDTA, Protease inhibitor Complete (Roche), pH 7.4]. The cell suspension was homogenized 3 times using a polytron homogenizer at 20,000 rpm for 30 sec. The obtained homogenate was centrifuged (2,000 rpm, 10 min, 4° C.) using a low speed cooling centrifuge. The supernatant was recovered in an ultracentrifugation tube and ultracentrifuged (40,000 rpm, 60 min, 4° C.) using an ultracentrifuge (Beckman, L-90K). To the obtained pellets was added a suspending buffer [50 mM Tris-HCl, 1 mM EDTA, Protease inhibitor Complete (Roche), pH 7.4], and the pellets were suspended by pipetting. The protein concentration of this suspension was measured, diluted to 2 mg/mL to give cellular membrane fractions of CHO-hMelR7 and CHO-hMT2 cells. The membrane fractions were dispensed to 1.5 mL tubes (Eppendorf, #0030120.086) by 100 μL, preserved in a freezer (−80° C.) and used for a binding assay. Protein was quantified using BCA protein assay kit (Pierce) with BSA as the standard.
(§5) (4) Preparation of Membrane Fraction Suspension
(§6) Immediately before use, the membrane fractions of CHO-hMelR7 and CHO-hMT2 cells of the above-mentioned (3) were diluted 20-fold with assay buffer (50 mM Tris-HCl, pH 7.7).
(§7) (5) Preparation of 2-[^125I] Iodomelatonin Solution
(§8) 2-[^125I] Iodomelatonin (#NEX236, PerkinElmer) was diluted with the assay buffer to 400 pM for MT1 and 1 nM for MT2.
The assay buffer (80 μL) of the above-mentioned (4) was added to each well of a 96-well plate (type 3363, Corning). Then, a test compound (compound solution diluted with DMSO to 200-fold of the final measurement concentration) was added by 2 μL. […]

[2] = target: T2, human melatonin 2 receptors (human MT2 receptors) (Homo sapiens, UniProt P49286); test: Melatonin receptor binding inhibitory test, 2-[125I] Iodomelatonin, MT2; details: membrane fraction of CHO-hMT2 cells, 25° C. for 2.5 hr, read-out: binding inhibitory activity as IC50 value for MT2
T2 construct: expressed in transfected cells; membrane fraction
T2 sequence (P49286 1-362): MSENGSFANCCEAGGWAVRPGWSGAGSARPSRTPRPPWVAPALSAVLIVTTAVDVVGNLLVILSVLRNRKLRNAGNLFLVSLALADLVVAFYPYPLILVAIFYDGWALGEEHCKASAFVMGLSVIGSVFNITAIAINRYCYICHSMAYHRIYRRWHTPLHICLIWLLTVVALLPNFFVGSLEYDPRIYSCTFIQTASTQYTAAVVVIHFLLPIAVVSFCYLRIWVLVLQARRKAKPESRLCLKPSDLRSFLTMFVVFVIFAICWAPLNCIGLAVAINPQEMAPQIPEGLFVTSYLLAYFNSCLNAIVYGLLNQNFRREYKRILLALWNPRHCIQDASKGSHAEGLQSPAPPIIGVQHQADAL
Procedure: as §1
(2) Preparation of CHO-hMT2 Cells Expressing Human Melatonin 2 Receptors
A cDNA fragment (SEQ ID NO: 2) encoding full-length of human melatonin 2 receptors (human MT2 receptors) was incorporated into expression vector pCMV-Script (Stratagene, #212220) to give the plasmid that was pCMV-human MT2 receptors expression vector for animal cell expression. CHO-K1 cells (ATCC, #CCL-61) were plated at the concentration of 1.5×10^5 cells/cm^2 in a 6 well plate (ASAHI TECHNO GLASS), and cultured under the conditions of 37° C., 5% CO2 for 24 hr. For gene transfection, solution obtained by blending pCMV-human MT2 receptors expression vector (1.9 μg), Lipofectamine Transfection Reagent (Invitrogen, #18324-012) (11.3 μL) and Minimum Essential Medium Eagle (MEM) medium (Sigma, M8042) (93.8 μL), and reacting at room temperature for 20 min was added to the cells per one well. The transfected cells were cultured in MEM medium containing 10% FBS (Life Technology) and 300 μg/mL Geneticin (GIBCO, #10131), and the cell line that stably expressed the plasmid gene was selected. By a receptor binding assay using 2-[^125I] Iodomelatonin, CHO-hMT2 cell line showing specific binding of 2-[^125I] Iodomelatonin was selected from the obtained clones.
as §2, §3, §4, §5, §6, §7, §8
The assay buffer (80 μL) of the above-mentioned (4) was added to each well of a 96-well plate (type 3363, Corning). […]

T1 sequence (P48039 whole entry): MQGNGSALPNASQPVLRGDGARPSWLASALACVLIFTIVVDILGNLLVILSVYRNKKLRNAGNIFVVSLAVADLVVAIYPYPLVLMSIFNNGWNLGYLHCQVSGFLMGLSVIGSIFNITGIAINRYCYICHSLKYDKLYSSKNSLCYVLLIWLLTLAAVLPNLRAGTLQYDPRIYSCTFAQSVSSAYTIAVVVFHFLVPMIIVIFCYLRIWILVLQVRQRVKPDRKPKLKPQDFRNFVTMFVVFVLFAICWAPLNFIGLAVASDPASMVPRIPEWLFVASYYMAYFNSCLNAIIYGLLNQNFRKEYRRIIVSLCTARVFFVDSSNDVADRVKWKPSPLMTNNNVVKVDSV

SMILES	IC50 [1]	IC50 [2]	melting point
CC(=O)NC[C@@H]1C[C@H]1c1cccc2nn(C)cc12 (relative stereo) [Example 1, trans-N-{[2-(2-methyl-2H-indazol-4-yl)cyclopropyl]methyl}acetamide]	≤ 100 nM	≤ 100 nM	153 to 154 °C
CCC(=O)NC[C@@H]1C[C@H]1c1cccc2nn(C)cc12 (relative stereo) [Example 2, trans-N-{[2-(2-methyl-2H-indazol-4-yl)cyclopropyl]methyl}propanamide]	≤ 100 nM	≤ 100 nM	104 to 106 °C
CC(=O)NC[C@@H]1C[C@H]1c1cccn2nc(C)cc12 (relative stereo) [Example 5, trans-N-{[2-(2-methylpyrazolo[1,5-a]pyridin-4-yl)cyclopropyl]methyl}acetamide]	≤ 100 nM	≤ 100 nM	114 to 115 °C
CCC(=O)NC[C@@H]1C[C@H]1c1cccn2nc(C)cc12 (relative stereo) [Example 6, trans-N-{[2-(2-methylpyrazolo[1,5-a]pyridin-4-yl)cyclopropyl]methyl}propanamide]	≤ 100 nM	≤ 100 nM	95 to 98 °C
Cn1cc2c([C@@H]3C[C@H]3CNC(=O)OC(C)(C)C)cccc2n1 (relative stereo) [Example 7, trans-tert-butyl{[2-(2-methyl-2H-indazol-4-yl)cyclopropyl]methyl}carbamate]			120 to 121 °C
CCC(=O)NC[C@@H]1C[C@@H]1c1cccc2nn(C)cc12 (relative stereo) [Example 14, cis-N-{[2-(2-methyl-2H-indazol-4-yl)cyclopropyl]methyl}propanamide]	≤ 100 nM	≤ 100 nM	155 to 156 °C
CC(=O)NC[C@@H]1C[C@H]1c1cccc2nn(C)c(F)c12 (relative stereo) [Example 18, trans-N-{[2-(3-fluoro-2-methyl-2H-indazol-4-yl)cyclopropyl]methyl}acetamide]	≤ 100 nM	≤ 100 nM	109 to 111 °C
CC(=O)NC[C@@H]1C[C@H]1c1c(F)ccc2nn(C)cc12 (relative stereo) [Example 23, trans-N-{[2-(5-fluoro-2-methyl-2H-indazol-4-yl)cyclopropyl]methyl}acetamide]	≤ 100 nM	≤ 100 nM	157 to 159 °C
Cc1cc2c([C@@H]3C[C@H]3CNC(=O)OC(C)(C)C)cccn2n1 (relative stereo) [Example 40, trans-tert-butyl{[2-(2-methylpyrazolo[1,5-a]pyridin-4-yl)cyclopropyl]methyl}carbamate]			105 to 107 °C
Cc1cc2c([C@@H]3C[C@H]3CNC(=O)c3ccccc3)cccn2n1 (relative stereo) [Example 50, trans-N-{[2-(2-methylpyrazolo[1,5-a]pyridin-4-yl)cyclopropyl]methyl}benzamide]			112 to 113 °C
CC(=O)NCC1CC1c1cccn2nc(C)nc12 (stereo not shown) [Example 3, N-{[2-(2-methyl[1,2,4]triazolo[1,5-a]pyridin-8-yl)cyclopropyl]methyl}acetamide]	≤ 100 nM		116 to 118 °C
CCC(=O)NCC1CC1c1cccn2nc(C)nc12 (stereo not shown) [Example 4, N-{[2-(2-methyl[1,2,4]triazolo[1,5-a]pyridin-8-yl)cyclopropyl]methyl}propanamide]	≤ 100 nM	≤ 100 nM	
Cn1cc2c([C@H]3C[C@@H]3CNC(=O)OC(C)(C)C)cccc2n1 [Example 8, tert-butyl{[(1S,2S)-2-(2-methyl-2H-indazol-4-yl)cyclopropyl]methyl}carbamate]			141 to 142 °C
Cn1cc2c([C@@H]3C[C@H]3CNC(=O)OC(C)(C)C)cccc2n1 [Example 9, tert-butyl{[(1R,2R)-2-(2-methyl-2H-indazol-4-yl)cyclopropyl]methyl}carbamate]			140 to 142 °C
Cn1cc2c([C@@H]3C[C@H]3CNC(=O)c3ccc(Br)cc3)cccc2n1 [Example 15, 4-bromo-N-{[(1R,2R)-2-(2-methyl-2H-indazol-4-yl)cyclopropyl]methyl}benzamide]			140 to 142 °C
CCc1ccc2nn(C)cc2c1C1CC1CNC(C)=O (stereo not shown) [Example 32, N-{[2-(5-ethyl-2-methyl-2H-indazol-4-yl)cyclopropyl]methyl}acetamide]	≤ 100 nM	≤ 100 nM	
Cc1cc2c([C@H]3C[C@@H]3CNC(=O)OC(C)(C)C)cccn2n1 [Example 41, tert-butyl{[(1S,2S)-2-(2-methylpyrazolo[1,5-a]pyridin-4-yl)cyclopropyl]methyl}carbamate]			117 to 118 °C
Cc1cc2c([C@@H]3C[C@H]3CNC(=O)OC(C)(C)C)cccn2n1 [Example 42, tert-butyl{[(1R,2R)-2-(2-methylpyrazolo[1,5-a]pyridin-4-yl)cyclopropyl]methyl}carbamate]			118 to 119 °C
CC(=O)NCC1CC1c1cccc2nc(C(F)(F)F)cn12 (stereo not shown) [Example 54, N-({2-[2-(trifluoromethyl)imidazo[1,2-a]pyridin-5-yl]cyclopropyl}methyl)acetamide]			135 to 137 °C
CCC(=O)NCC1CC1c1cccc2nc(C(F)(F)F)cn12 (stereo not shown) [Example 55, N-({2-[2-(trifluoromethyl)imidazo[1,2-a]pyridin-5-yl]cyclopropyl}methyl)propanamide]			148 to 151 °C
